According to ChEMBL document CHEMBL4118217, “Pyrrolinone derivatives as a new class of P2X3 receptor antagonists. Part 1: Initial structure-activity relationship studies of a hit from a high throughput screening” (Bioorg Med Chem Lett, 2018):

How the values were obtained:
P2X purinoceptor 3 = biological target: T1, P2X purinoceptor 3 (Homo sapiens, UniProt P56373)
T1 sequence (P56373 whole entry): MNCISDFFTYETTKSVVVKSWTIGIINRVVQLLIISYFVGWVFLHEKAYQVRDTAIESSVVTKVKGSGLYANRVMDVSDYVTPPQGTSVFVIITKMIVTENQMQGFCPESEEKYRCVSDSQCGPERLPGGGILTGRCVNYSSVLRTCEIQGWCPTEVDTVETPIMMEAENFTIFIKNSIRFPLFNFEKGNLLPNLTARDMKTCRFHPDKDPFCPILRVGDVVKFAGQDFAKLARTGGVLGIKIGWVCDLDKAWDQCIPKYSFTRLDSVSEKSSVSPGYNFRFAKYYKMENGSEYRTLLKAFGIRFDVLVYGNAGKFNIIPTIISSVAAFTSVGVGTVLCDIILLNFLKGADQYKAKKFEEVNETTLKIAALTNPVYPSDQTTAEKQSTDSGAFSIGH

in vivo = conditions: rat, iv, 0.5 mg/kg
[1] = Half life in rat at 0.5 mg/kg, iv or 1 mg/kg, po; type: ADME, organism-based; conditions: in vivo
[2] = Oral bioavailability in rat at 1 mg/kg; type: ADME, organism-based; conditions: in vivo
Mus musculus = test: Analgesic activity in iv dosed mouse assessed as inhibition of acetic acid-induced writhes; type: functional

Row | SMILES | IC50 (P2X purinoceptor 3) [nM] | also measured
1 | CCOC(=O)c1ccc(N2C(=O)C(O)=C(c3ccc(OC)cc3)C2c2ccccc2)cc1 (stereo unspecified) | > 10000 | –
2 | COc1ccc(C(=O)C2=C(O)C(=O)N(c3ccc(-c4cc(C)no4)cc3)C2C2CCCCC2)cc1 (stereo unspecified) | 9 | clearance (in vivo): 6.2 mL/min/kg; half-life [1]: 1.1 h; bioavailability [2]: 0.5%
3 | CCOC(=O)c1ccc(N2C(=O)C(OC)=C(C(=O)c3ccc(OC)cc3)C2c2ccccc2)cc1 (stereo unspecified) | 9800 | –
4 | CCOC(=O)c1ccc(N2C(=O)C(O)=C(C(=O)c3ccc(OC)cc3)C2c2ccccc2Cl)cc1 (stereo unspecified) | 90 | –
5 | CCOC(=O)c1ccc(N2C(=O)C(O)=C(C(=O)c3ccc(OC)cc3)C2C2CCCCC2)cc1 (stereo unspecified) | 10 | –
6 | COc1ccc(C(=O)C2=C(O)C(=O)N(c3ccc(-c4noc(C)n4)cc3)C2c2ccccc2)cc1 (stereo unspecified) | 100 | –
7 | CCOC(=O)c1ccc(N2C(=O)C=C(C(=O)c3ccc(OC)cc3)C2c2ccccc2)cc1 (stereo unspecified) | > 10000 | –
8 | COc1ccc(C(=O)C2=C(O)C(=O)N(c3ccc(-c4ncco4)cc3)C2C2CCCCC2)cc1 (stereo unspecified) | 135 | –
9 | CCOC(=O)c1ccc(N2C(=O)C(O)=C(C(=O)c3ccc(OC)cc3)C2c2ccc(F)cc2)cc1 (stereo unspecified) | 20 | clearance (in vivo): 37 mL/min/kg; half-life [1]: 0.1 h
10 | CCOC(=O)c1ccc(N2CC(C(=O)c3ccc(OC)cc3)=C(O)C2=O)cc1 | > 10000 | –
11 | COc1ccc(C(=O)C2=C(O)C(=O)N(c3ccc(C(F)(F)F)cc3)C2c2ccc(F)cc2)cc1 (stereo unspecified) | 360 | –
12 | CCOC(=O)c1ccc(N2C(=O)C(O)=C(C(=O)c3ccc(OC)cc3)C2c2cccc(F)c2)cc1 (stereo unspecified) | 30 | –
13 | COc1ccc(C(=O)C2=C(O)C(=O)N(c3ccc(-c4noc(C)n4)cc3)C2C2CCCCC2)cc1 (stereo unspecified) | 19 | clearance (in vivo): 5 mL/min/kg; half-life [1]: 0.8 h; bioavailability [2]: 7.1%
14 | COc1ccc(C(=O)C2=C(O)C(=O)N(c3ccc(-c4nc(C)no4)cc3)C2C2CCCCC2)cc1 (stereo unspecified) | – | clearance (in vivo): 3.4 mL/min/kg; half-life [1]: 1 h; bioavailability [2]: 13.5%
15 | COc1ccc(C(=O)C2=C(O)C(=O)N(c3ccc(-c4ccon4)cc3)C2C2CCCCC2)cc1 (stereo unspecified) [listing 1 of 2 here] | – | inhibition (Mus musculus): Dose-dependent effect
16 | CCOC(=O)c1ccc(N2C(=O)C(O)=C(/C(=N/O)c3ccc(OC)cc3)C2c2ccccc2)cc1 (stereo unspecified) | 560 | –

Row | SMILES | IC50 (P2X purinoceptor 3) [nM] | also measured
17 | CCOC(=O)c1ccc(N2C(=O)C(O)=C(C(=O)Nc3ccc(OC)cc3)C2c2ccccc2)cc1 (stereo unspecified) | 3930 | –
18 | CCOC(=O)c1ccc(N2C(=O)C(O)=C(NC(=O)c3ccc(OC)cc3)C2c2ccccc2)cc1 (stereo unspecified) | 1370 | –
19 | COc1ccc(C(=O)C2=C(O)C(=O)N(c3ccccc3)C2c2ccccc2)cc1 (stereo unspecified) | > 10000 | –
20 | CCOC(=O)c1ccc(N2C(=O)C(O)=C(C(C)=O)C2c2ccccc2)cc1 (stereo unspecified) | 4790 | –
21 | CCOC(=O)c1ccc(N2C(=O)C(O)=C(C(=O)c3ccc(OC)cc3)C2c2ccccc2)cc1 (stereo unspecified) | 20 | –
22 | CCOC(=O)c1ccc(N2C(=O)C(O)=C(C(=O)c3ccc(OC)cc3)C2c2ccc(Cl)cc2)cc1 (stereo unspecified) | 130 | –
23 | COc1ccc(C(=O)C2=C(O)C(=O)N(c3ccc(CO)cc3)C2c2ccccc2)cc1 (stereo unspecified) | > 10000 | –
24 | COc1ccc(C(=O)C2=C(O)C(=O)N(c3ccc(-c4nnc(C)o4)cc3)C2C2CCCCC2)cc1 (stereo unspecified) | 72 | clearance (in vivo): 5.5 mL/min/kg; half-life [1]: 1.7 h; bioavailability [2]: 2.9%
25 | CCOC(=O)c1ccc(N2C(=O)C(O)=C(C(=O)c3ccc(OC)cc3)C2c2ccccc2F)cc1 (stereo unspecified) | 130 | –
26 | COc1ccc(C(=O)C2=C([O-])C(=O)N(c3ccc(-c4ccon4)cc3)C2C2CCCCC2)cc1.[Na+] (stereo unspecified) | – | ED50 (Mus musculus): 2.6 mg/kg
27 | CCOC(=O)c1ccc(N2C(=O)C(O)=C(Cc3ccc(OC)cc3)C2c2ccccc2)cc1 (stereo unspecified) | > 10000 | –
28 | COc1ccc(C(=O)C2=C(O)C(=O)N(c3ccc(-c4ccon4)cc3)C2C2CCCCC2)cc1 (stereo unspecified) [listing 2 of 2 here] | – | half-life [1]: 1.3 h; bioavailability [2]: 10.2%
29 | CCOC(=O)c1ccc(N2C(=O)C(O)=C(C(=O)c3ccccc3)C2c2ccccc2)cc1 (stereo unspecified) | 370 | –
30 | CCOC(=O)c1ccc(N2C(=O)C(NO)=C(C(=O)c3ccc(OC)cc3)C2c2ccccc2)cc1 (stereo unspecified) | 4240 | –
31 | COc1ccc(C(=O)C2=C(O)C(=O)N(c3ccc(C(=O)O)cc3)C2c2ccccc2)cc1 (stereo unspecified) | > 10000 | –
32 | COc1ccc(C(=O)C2=C(O)C(=O)N(c3ccc(C(C)=O)cc3)C2c2ccccc2)cc1 (stereo unspecified) | 3280 | –
